Experimental data: ChEMBL document CHEMBL1133460, “Synthesis and biological evaluation of certain alpha,beta-unsaturated ketones and their corresponding fused pyridines as antiviral and cytotoxic agents” (J Med Chem, 2000); call rule not given here
In brackets after ≈: the same amount, converted by molar mass. Several values for one entry are separate records, joined by “and”; a condition that tells them apart may be missing. Identical values can stand only once.

Experiments:
Tumor cell line [1] = assay: (§1) In vitro median growth inhibitory concentration against breast cancer cell lines; format: functional; conditions: Homo sapiens
Ovarian cancer cell line [2] = assay: In vitro median growth inhibitory concentration against ovarian cancer cell lines; format: functional; conditions: Homo sapiens
[3] = tested on: Human immunodeficiency virus 1; assay: In vitro effective concentration against HIV-1 cytopathic effect in T4 cells; Inactive; format: functional, organism-based
NSCLC = assay: In vitro median growth inhibitory concentration against non-small-cell lung cancer; format: functional; conditions: Homo sapiens
[4] = tested on: Panel leukemia (Carcinoma cell lines); assay: In vitro median growth inhibitory conc. against leukemia was estimated.; format: functional; conditions: Homo sapiens
[5] = tested on: Panel renal (Carcinoma cell lines); assay: In vitro median growth inhibitory concentration against renal cancer cell lines; format: functional; conditions: Homo sapiens
[6] = In vitro median growth inhibitory concentration against colon cancer cell lines; format: functional; conditions: Homo sapiens
[7] = tested on: Panel prostate (Carcinoma cell lines); assay: In vitro median growth inhibitory concentration against prostate cancer cell lines; format: functional; conditions: Homo sapiens
Homo sapiens = organism: Homo sapiens; assay: Selectivity ratio between the full panel MG-MID and leukemia subpanel MG-MID was determined.; format: functional
[8] = tested on: Panel melanoma (Carcinoma cell lines); assay: In vitro median growth inhibitory concentration against melanoma cell lines; format: functional; conditions: Homo sapiens
MT4 = assay: In vitro inhibitory activity against uninfected T4 cells; format: functional, cell-based; conditions: Homo sapiens
[9] = Full panel mean-graph midpoint (MG-MID)
[10] = tested on: Panel CNS (Carcinoma cell lines); assay: In vitro median growth inhibitory concentration against CNS cancer cell lines; format: functional; conditions: Homo sapiens
Human alphaherpesvirus 1 [11] = assay: Minimum antiviral concentration proved to be lethal to viral population in uM; format: functional
Human alphaherpesvirus 1 [12] = assay: In vitro antiviral activity against Herpes Simplex-1 virus (HSV-1) expressed as percent reduction in the number of viral plaques; format: functional; set-up: concentration or dose not given beside the values
Breast cancer cell line [13] = assay: as §1; format: functional; conditions: Homo sapiens
Tumor cell line [14] = assay: In vitro growth inhibitory concentration against non-small-cell lung cancer cell lines; format: functional; conditions: Homo sapiens
[15] = tested on: Panel leukemia (Carcinoma cell lines); assay: In vitro growth inhibitory concentration against leukemia tumor cell lines; format: functional; conditions: Homo sapiens
Ovarian cancer cell line [16] = assay: In vitro growth inhibitory concentration against ovarian cancer cell lines; format: functional; conditions: Homo sapiens
Human alphaherpesvirus 1 [17] = assay: 50% loss of the monolayer present around the viral plaques in uM; format: functional, organism-based
[18] = tested on: Panel prostate (Carcinoma cell lines); assay: In vitro growth inhibitory concentration against prostate cancer cell lines; format: functional; conditions: Homo sapiens
Human alphaherpesvirus 1 [19] = assay: Minimum antiviral concentration proved to be lethal to viral population in ug/mL.; format: functional
[20] = tested on: Panel CNS (Carcinoma cell lines); assay: In vitro growth inhibitory concentration against CNS cancer cell lines; format: functional; conditions: Homo sapiens
Human alphaherpesvirus 1 [21] = assay: concentration caused 50% loss of the monolayer present around the viral plaques in ug/mL.; format: functional, organism-based
Breast cancer cell line [22] = assay: In vitro growth inhibitory concentration against breast cancer cell lines; format: functional; conditions: Homo sapiens
[23] = tested on: Panel melanoma (Carcinoma cell lines); assay: In vitro growth inhibitory concentration against melanoma cancer cell lines; format: functional; conditions: Homo sapiens
[24] = In vitro growth inhibitory concentration against colon cancer tumor cell lines; format: functional; conditions: Homo sapiens
[25] = tested on: Panel renal (Carcinoma cell lines); assay: In vitro growth inhibitory concentration against renal cancer cell lines; format: functional; conditions: Homo sapiens

Compound	GI50 (Ovarian cancer cell line [2]) [µM]	EC50 [3]	GI50 (NSCLC) [µM]	GI50 [4] [µM]	GI50 [5] [µM]	GI50 [6] [µM]	GI50 [7] [µM]	Ratio (Homo sapiens)	GI50 [8] [µM]	IC50 (MT4) [µM]	MG-MID [9]	GI50 [10] [µM]	also measured
COc1ccc(/C=C2\CN(C)CC3C2=NN(c2ccccc2)C3c2ccc(OC)cc2)cc1 (stereo not given)	80.7	Not Active	82.1	> 100	54.7	> 100	> 100	0.7	77.7	> 200	72.9 µM	63.1	GI50 (Tumor cell line [1]): 91.8 µM
Cc1ccc(/C=C2\CN(C)CC3=C2N=C(S)NC3c2ccc(C)cc2)cc1 (stereo not given)	51.2	Not Active	59.6	19.2	60.8	37.1	38.3	1.8	58.8	27.6	34.5 µM and 86.5 µM	53.7	MAC (Human alphaherpesvirus 1 [11]): 0.27 µM; Reduction (Human alphaherpesvirus 1 [12]): 45%; GI50 (Breast cancer cell line [13]): 39.4 µM; TGI (Tumor cell line [14]): 89.9 µM; TGI [15]: 62.3 µM; TGI (Ovarian cancer cell line [16]): 94 µM; IC50 (Human alphaherpesvirus 1 [17]): 0.19 µM; TGI [18]: > 100 µM; MAC (Human alphaherpesvirus 1 [19]): 0.1 µg/mL; TGI [20]: 94.1 µM; IC50 (Human alphaherpesvirus 1 [21]): 0.07 µg/mL (≈ 0.186 µM); TGI (Breast cancer cell line [22]): 88.8 µM; TGI [23]: > 100 µM; TGI [24]: 83.6 µM; TGI [25]: 96.9 µM
